Patent US12533357B2, “Treatment for acute myeloid leukemia or myelodysplastic syndrome” (UNIVERSITY HEALTH NETWORK, priority 2019, dated 2026)

What was measured:
cancer cells = assay: Compound (I) treatment of cancer cells (FIG. 1); assay type: cell-based
Protocol: Cells were seeded in triplicate at 10,000 per 80 uL, into 96-well plates 24 hours before compound overlay and cultured at 37° C. and 5% CO2. Compound (I) was prepared as a 10 mM stock in 100% DMSO and diluted with RPMI 1640 cell growth medium containing 10% FBS such that the final concentrations ranged from 50 pM to 15 uM. Aliquots (20 uL) from each concentration were overlaid to 80 uL of pre-seeded cells to achieve final concentrations of 10 pM to 3 uM. After 3 days, cell viability in each well was assessed by alamarBlue assay according to the manufacturer's instruction (ThermoFisher Scientific). Absorbance was read at 570 nm using a SpectraPlus microplate reader (Molecular Devices Corporation). alamarBlue absorbance values were adjusted by subtracting the average of the baseline readings from untreated cells assessed one day after cell seeding. The percentage (%) of relative inhibition of cell viability was calculated by comparing to DMSO-treated cells. IC50s were calculated using GraphPad PRISM software (GraphPad Software Inc.).

[1] = system: MOLT-4 acute lymphoblastic leukemia xenograft; assay: MOLT-4 xenograft tumor growth in SCID mice; assay type: in vivo; details: for complete regressions: 21 days of dosing; for tumors with regression observed / average tumor regression: day 13, fumarate
Protocol: The human acute lymphoblastic leukemia cell line MOLT-4 was acquired from American Type Culture Collection (Manassas, VA, USA) and grown in RPMI medium containing 100 units/mL penicillin G sodium, 100 μg/mL streptomycin sulfate. The media was supplemented with 10% heat-inactivated fetal bovine serum, 2 mM L-glutamine, and 0.11% sodium pyruvate. The tumor cells were maintained in a humidified environment of 5% CO2 and 95% air at 37° C. Cells were verified to be free of mouse pathogens by IMPACT IV PCR analysis (IDEXX RADIL, Colombia, MO, USA) before injection.
Female SCID mice were purchased from the Ontario Cancer Institute and received and acclimated at the MaRS-TMDT Animal Resources Centre for 2 weeks prior to the start of the experiment. The mice were fed ad libitum autoclaved water and Rodent Lab Diet (Harlan Teklad LM-485) consisting of 19% crude protein, 5% crude fat, and 5% crude fiber. Mice were housed in microisolator cages and maintained in an environment with a 12-hour light cycle at 20-22° C. and 40-60% humidity. On the day of implantation, MOLT-4 cells were harvested and resuspended with serum free DMEM to a concentration of 1×10^8/mL and each mouse was injected subcutaneously with a volume of 0.1 mL containing 1×10^7 MOLT-4 cells in the right rear flank.
Animals were dosed Compound (I) via oral gavage in a volume of 10 mL/kg. The animals were dosed with a 2.25 mm×50 mm curved gavage needle affixed to a 1 mL syringe. Vincristine was dosed by IP injection once per week.
Toxicity was evaluated by body weight measurements and clinical observations. The mice were observed daily for overt signs of any adverse, treatment related side effects, and clinical signs of toxicity. Acceptable toxicity was set at a group mean body weight loss of less than 20% during the study and not more than one treatment related death in a group. Animals were monitored for body weights and tumor growth where tumor volumes were calculated using the formula: tumor volume=width^2×length/2.
The study evaluated Compound (I) fumarate administered by oral gavage for 21 days, either daily at 7.5 mg/kg or 2 days on/5 days off at 13.5 mg/kg, in comparison to the standard-of-care agent vincristine, dosed in 4 weekly intraperitoneal injections of 0.5 mg/kg, in the MOLT-4 […] xenograft model in SCID (severe combined immunodeficiency) mice. Xenografts were established by subcutaneously injecting 1×10^7 tumor cells into the right flank of female SCID mice. Treatment was initiated 9 days following implantation when tumor volumes reached a mean volume of approximately 250 mm^3.

[2] = system: complex karyotype (CK) AML cell lines; assay: In vitro combination with standard of care agents; assay type: cell-based; details: in combination with Venetoclax (Bcl2 inhibitor) and 5-Azacytidine; multiple CK AML cell lines in vitro
[3] = Phase 1 dose-escalation study (NCT03187288); assay type: in vivo, human
Protocol: This study (NCT number: NCT03187288) is a multi-center, phase 1, dose-escalation trial designed to assess the safety, tolerability, pharmacokinetics, and clinical benefit of treatment with Compound (I) fumarate administered orally over a range of doses in patients with acute myeloid leukemia (AML) or myelodysplastic syndrome (MDS) that is relapsed or refractory to current treatment or for which no curative therapy exists.
Results: 9 patients with relapsed or refractory AML were treated with escalating doses of Compound (I) (64 mg to 128 mg) administered orally once daily. Among them, 3 patients were dosed at 64 mg, 4 patients were dosed at 96 mg, and 2 patients were dosed at 128 mg. Of six patients evaluable for response, two (33%) achieved complete remission (CR), and 3 patients (50%) had stable disease (with one patient having a 78% reduction in marrow blast count). The dose limiting toxicity (DLT) was determined to be colitis at the 128 mg dose level. […] However, only 4 patients were enrolled at the 96 mg dose level before the study was paused for enrollment and was amended.

[4] = Day 25, 2-on/5-off arm 13.5 mg/kg

COc1ccc2c(c1)[C@]1(C[C@H]1c1ccc3c(/C=C/c4ccc(CN5C[C@@H](C)O[C@@H](C)C5)cc4)n[nH]c3c1)C(=O)N2 [Compound (I), (1R,2S)-2-(3-((E)-4-(((2S,6R)-2,6-dimethylmorpholino)methyl)styryl)-1H-indazol-6-yl)-5′-methoxyspiro[cyclopropane-1,3′-indolin]-2′-one]
effect of treatment on cancer cells (cancer cells): aberrant mitoses leading to death or arrest
average regression [1, 4]: 96%
complete regressions [1, 4]: 6 of 8
complete regressions ([1]; Day 25, daily dosing arm 7.5 mg/kg): 8 of 8
overall efficacy in MOLT-4 xenograft model ([1]; SCID mice): very efficacious and potentially curative
tumors with regression observed ([1]; oral 13.5 mg/kg 2-on/5-off): 7 of 8
average tumor regression ([1]; oral 13.5 mg/kg 2-on/5-off, p=6.5*10^-6): 28%
tumors with regression observed ([1]; oral daily 7.5 mg/kg): 7 of 8
average tumor regression ([1]; oral daily 7.5 mg/kg, p=2.5*10^-6): 77%
combination activity [2]: additive/synergistic activity
dose limiting toxicity (DLT) ([3]; 128 mg dose level, orally once daily): colitis
patients with stable disease ([3]; 3 of six evaluable patients, 64 mg to 128 mg orally once daily): 50%
effect on outcome of a patient ([3]; a patient with CK AML): positively affected the outcome
reduction in marrow blast count ([3]; one patient with stable disease): 78%
single agent clinical activity ([3]; patients with poor risk AML): has activity
patients achieving complete remission (CR) ([3]; two of six evaluable patients, 64 mg to 128 mg orally once daily): 33%
